* marks the point of attachment. NOTA = O=C(O)CN1CCN(CC(=O)O)CCN(CC(=O)*)CC1

The data set addresses T1, granzyme B (Mus musculus, UniProt P04187).
T1 construct: from tissue; host or cells: intracranial GSC005-luc tumour in C57BL/6 mice; granzyme B comes from the host's cytotoxic immune cells
T1 sequence (P04187 21-247): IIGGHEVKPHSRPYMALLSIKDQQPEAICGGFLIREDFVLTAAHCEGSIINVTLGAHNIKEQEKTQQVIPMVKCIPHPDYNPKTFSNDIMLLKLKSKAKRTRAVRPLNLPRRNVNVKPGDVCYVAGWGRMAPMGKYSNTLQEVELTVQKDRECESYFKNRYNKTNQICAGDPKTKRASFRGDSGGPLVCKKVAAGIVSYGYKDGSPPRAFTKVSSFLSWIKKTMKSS
The format is in vivo, mouse (C57BL/6, orthotopic GSC005-luc GBM). The text has this:
Dynamic [^64Cu]-NOTA-GZP PET was collected using a preclinical small animal PET/CT imaging system (GNEXT, Sofie Bioscience, Culver City, CA) seven days from the start of therapy. Scan consisted of an 80-min list-mode acquisition, with 100 ± 10 μCi (3.7 ± 0.37 MBq) of [^64Cu]-NOTA-GZP being administered via tail-vein catheter followed by a saline flush. Subsequently, a 5-min computed tomography (CT, voltage, 80 kVp; current, 150 μA) scan was collected for anatomical reference. A subset of mice (N = 5 treatment, 3 controls) was humanely euthanized, and brains were excised for a 1 h ex vivo PET/CT brain scan and, upon completion, placed in formalin and fixed overnight. Remaining mice were monitored longitudinally for survival.
Dynamic PET data was reconstructed using a 3D ordered-subset expectation maximization algorithm (24 subsets, 3 iterations) with a reconstructed voxel size of 0.5 × 0.5 × 0.5 mm^3 based on a 12 × 10 s, 6 × 30 s, 5 × 60 s, 10 × 300 s, 1 × 1200 s framing sequence (Figure 2A). PET sequences were rigidly registered to the reference anatomical CT scan. Voxel-wise conversion to standardized uptake value (SUV) was then performed based on the following equation:
GSC005-luc orthotopic mouse models were developed and treated with single dose M002 followed by a dose of anti-PD1 on days 1, 4 and 7 (N = 22), or saline at similar timepoints (N = 9). 80-min dynamic [^64Cu]-NOTA-GZP PET/CT scans were performed at day 4 and 7 following treatment, with tumor and contralateral brain time activity curves being fitted to a 2TCM as selected based on prior comparative assessment. Metrics for average SUV, k1, k2, k3 and k4 were quantified on the tumor region with additional normalization to contralateral healthy brain (TBR).
In addition, anatomical MRI scans were collected prior to the start of treatment (D-1), and at days 3, 6 and 13 following treatment for anatomical PET/CT reference and monitoring of tumor volumes. Longitudinal monitoring was performed via BLI every three days. […] Response was defined based on a threshold of less than 20% increase in BLI signal one month following initial immunotherapy administration as previously reported.

As for “{NOTA}-AGGIEFD-aldehyde [[^64Cu]-NOTA-GZP, NOTA-Ala-Gly-Gly-Ile-Glu-Phe-Asp-CHO (NOTA-GZP) radiolabeled with ^64Cu; granzyme B specific PET imaging agent]”, the “k3 (tracer binding rate), contralateral brain” value (2TCM, combination immunotherapy-treated mice, four days following therapy, contralateral brain) was found to be 0.04 ± 0.05 min⁻¹. The “k3 (tracer binding rate), tumor” value (2TCM, combination immunotherapy-treated mice, four days following therapy, tumor) worked out at 0.13 ± 0.8 min⁻¹. Where the note is “mouse, in vivo”, the “SUV TBR” value is on record as 2.50 ± 1.68 and the k1 TBR was determined as 1.18 ± 0.75.

For the origin of these results see publication PMC12775653, “Quantitative dynamic granzyme B PET imaging to characterize novel combination immunotherapy response in preclinical glioblastoma models” (Theranostics, 2026).
